Organism: Rattus norvegicus
Experiment: Inhibition of rat recombinant geranylgeranyltransferase type I expressed in Escherichia coli assessed as residual enzyme activity for geranylgeranylation of K-Ras4B at 50 uM incubated for 30 mins in presence of [3H]GGPP by scintillation counting assay relative to control
With `CCCCCS[C@@H]1C[C@@H](c2cccc(OC)c2)N(S(=O)(=O)c2ccc(C)cc2)C[C@H]1C(=O)O` the Activity was 105%. Molecule `CCCS[C@@H]1C[C@@H](c2ccc(C)cc2)N(S(=O)(=O)c2ccc(C)cc2)C[C@H]1C(=O)O` has an Activity of 69.8%. For `CCc1ccc([C@@H]2C[C@@H](SCCC(C)C)[C@H](C(=O)O)CN2S(=O)(=O)c2ccc(C)cc2)cc1`, the Activity was 71.9%. `Cc1ccc([C@H]2C(C(=O)O)=CC[C@@H](c3ccc(C)cc3)N2S(=O)(=O)c2ccccc2C)cc1` showed an Activity of 88.3%. `COc1cc([C@@H]2C[C@@H](SCC(C)C)[C@H](C(=O)O)CN2S(=O)(=O)c2ccc(C)cc2)cc(OC)c1OC` was tested, and the Activity was 98.3%. `Cc1ccc([C@H]2C(C(=O)O)=CC[C@@H](c3ccc(C)cc3)N2S(=O)(=O)c2ccccc2)cc1` was tested, and the Activity was 99.8%. `CCCS[C@@H]1C[C@@H](c2ccc(OC)cc2)N(S(=O)(=O)c2ccccc2C)C[C@H]1C(=O)O` gave an Activity of 88.4%. Work on `CS(=O)(=O)N1[C@@H](c2ccc(Br)cc2)C(C(=O)O)=CC[C@H]1c1ccc(Cl)cc1` yielded an Activity of 53.6%. For `CCS[C@@H]1C[C@@H](c2ccc(Cl)cc2)N(S(=O)(=O)c2ccccc2C)C[C@H]1C(=O)O`, the Activity was 63.2%. `COc1cc([C@@H]2C[C@@H](SCCC(C)C)[C@H](C(=O)O)CN2S(=O)(=O)c2ccc(C)cc2)cc(OC)c1OC` showed an Activity of 106%. In the case of `COC(=O)c1ccccc1S(=O)(=O)N1[C@@H](c2ccc(C)cc2)C(C(=O)O)=CC[C@H]1c1ccc(C)cc1`, the Activity is reported as 89.4%. `Cc1ccc(S(=O)(=O)N2[C@@H](c3cccc(F)c3)C(C(=O)O)=CC[C@H]2c2ccc(C#N)cc2)cc1` was tested, and the Activity was 88.3%. `CS(=O)(=O)N1[C@@H](c2cccc(Cl)c2)C(C(=O)O)=CC[C@H]1c1ccc(Cl)cc1` showed an Activity of 60.3%. Work on `COc1ccc([C@@H]2C[C@@H](SCc3ccc(C(C)(C)C)cc3)[C@H](C(=O)O)CN2S(=O)(=O)c2ccccc2C)cc1` yielded an Activity of 87.2%. Molecule `Cc1ccccc1S(=O)(=O)N1C[C@@H](C(=O)O)[C@H](SCCC(C)C)C[C@H]1c1ccc(Cl)cc1` has an Activity of 53.2%. For `CCOc1ccc([C@@H]2C[C@@H](Sc3ccccc3)[C@H](C(=O)O)CN2S(=O)(=O)c2ccc(C)cc2)cc1`, the Activity was 61.1%. `Cc1ccc(S(=O)(=O)N2[C@@H](c3cccc(Br)c3)C(C(=O)O)=CC[C@H]2c2cccs2)cc1` gave an Activity of 55%. For `COc1ccc([C@@H]2CC=C(C(=O)O)[C@H](c3cccc(C)c3)N2S(=O)(=O)c2ccccc2C)cc1`, the Activity was 61.3%. `Cc1ccc(S(=O)(=O)N2C[C@@H](C(=O)O)[C@H](SCC(C)C)C[C@H]2c2ccc(Cl)cc2)cc1` was tested, and the Activity was 86.8%. `Cc1ccc(S(=O)(=O)N2[C@@H](c3ccc(F)cc3)C(C(=O)O)=CC[C@H]2c2cccc(F)c2)cc1` was tested, and the Activity was 63.4%. `CCCCCCS[C@@H]1C[C@@H](c2ccc(C)cc2)N(S(=O)(=O)c2ccc(Cl)cc2)C[C@H]1C(=O)O` showed an Activity of 71.6%. In the case of `CCS[C@@H]1C[C@@H](c2ccc(OC)cc2)N(S(=O)(=O)c2ccccc2C)C[C@H]1C(=O)O`, the Activity is reported as 71.1%. Molecule `CCc1ccc([C@@H]2CC=C(C(=O)O)[C@H](c3ccc(C)cc3)N2S(=O)(=O)c2ccc(C)cc2)cc1` has an Activity of 87%. `COc1cc([C@@H]2C[C@@H](Sc3ccccc3)[C@H](C(=O)O)CN2S(=O)(=O)c2ccc(C)cc2)cc(OC)c1OC` showed an Activity of 83.7%. For `COc1ccc([C@@H]2C[C@@H](SCc3ccc(C(C)(C)C)cc3)[C@H](C(=O)O)CN2S(=O)(=O)c2ccc(C)cc2)cc1OC`, the Activity was 78.9%. With `C=CCS[C@@H]1C[C@@H](c2cc(OC)c(OC)c(OC)c2)N(S(=O)(=O)c2ccc(C)cc2)C[C@H]1C(=O)O` the Activity was 109%. In the case of `Cc1ccc(S[C@@H]2C[C@@H](c3ccc(Cl)cc3)N(S(=O)(=O)c3ccc(C)cc3)C[C@H]2C(=O)O)cc1`, the Activity is reported as 76.1%. With `CC(=O)C1=CC[C@@H](c2ccc(C)cc2)N(S(=O)(=O)c2ccccc2[N+](=O)[O-])C1` the Activity was 110%. With `COc1ccc([C@@H]2C[C@@H](SCc3ccccc3)[C@H](C(=O)O)CN2S(=O)(=O)c2ccc(C)cc2)cc1` the Activity was 105%. `CCCCCS[C@@H]1C[C@@H](c2ccc(C)cc2)N(S(=O)(=O)c2ccccc2)C[C@H]1C(=O)O` was tested, and the Activity was 81%. For `CCCCCCS[C@@H]1C[C@@H](c2cc(OC)c(OC)c(OC)c2)N(S(=O)(=O)c2ccc(C)cc2)C[C@H]1C(=O)O`, the Activity was 93.6%. For `Cc1ccc([C@@H]2C[C@@H](SCc3ccccc3)[C@H](C(=O)O)CN2S(=O)(=O)c2ccccc2)cc1`, the Activity was 47.4%. In the case of `CCOc1ccc([C@@H]2C[C@@H](Sc3ccc(C)cc3)[C@H](C(=O)O)CN2S(=O)(=O)c2ccc(C)cc2)cc1`, the Activity is reported as 65.4%. In the case of `CCc1ccc([C@@H]2C[C@@H](SCc3ccccc3)[C@H](C(=O)O)CN2S(=O)(=O)c2ccc(C)cc2)cc1`, the Activity is reported as 63.1%. With `C=CCS[C@@H]1C[C@@H](c2cccc(OC)c2)N(S(=O)(=O)c2ccc(C)cc2)C[C@H]1C(=O)O` the Activity was 75.1%. `Cc1ccc([C@@H]2C[C@@H](Sc3ccccc3)[C@H](C(=O)O)CN2S(=O)(=O)c2ccc(C)cc2)cc1` was tested, and the Activity was 63.2%. Molecule `CCCS[C@@H]1C[C@@H](c2cc(OC)c(OC)c(OC)c2)N(S(=O)(=O)c2ccc(C)cc2)C[C@H]1C(=O)O` has an Activity of 75%. Molecule `C=CCS[C@@H]1C[C@@H](c2ccc(C)cc2)N(S(C)(=O)=O)C[C@H]1C(=O)O` has an Activity of 91.4%. With `Cc1ccc(S(=O)(=O)N2[C@@H](c3cccc(Br)c3)C(C(=O)O)=CC[C@H]2c2ccc(Cl)cc2)cc1` the Activity was 56.6%. With `CCCCCS[C@@H]1C[C@@H](c2ccc(C)cc2)N(S(=O)(=O)c2ccc(Cl)cc2)C[C@H]1C(=O)O` the Activity was 75.8%. `COc1ccc([C@@H]2C[C@@H](SCC(C)C)[C@H](C(=O)O)CN2S(=O)(=O)c2ccccc2)cc1` showed an Activity of 70.2%. With `CCCCCCS[C@@H]1C[C@@H](c2cccc(OC)c2)N(S(=O)(=O)c2ccc(C)cc2)C[C@H]1C(=O)O` the Activity was 80.5%. Molecule `CCCS[C@@H]1C[C@@H](c2ccccc2F)N(S(=O)(=O)c2ccc(C)cc2)C[C@H]1C(=O)O` has an Activity of 91.1%. In the case of `Cc1ccc([C@@H]2CC=C(C(=O)O)[C@H](c3cccc(F)c3)N2S(=O)(=O)c2ccccc2)cc1`, the Activity is reported as 64.9%. `Cc1ccc(S(=O)(=O)N2[C@@H](c3ccc(Cl)cc3)C(C(=O)O)=CC[C@H]2c2ccccc2F)cc1` gave an Activity of 58.2%. Molecule `Cc1ccc([C@@H]2CC=C(C(=O)O)[C@H](c3ccc(F)cc3)N2S(=O)(=O)c2ccc(C)cc2)cc1` has an Activity of 67.7%. `Cc1ccc(S(=O)(=O)N2[C@@H](c3ccc(Br)cc3)C(C(=O)O)=CC[C@H]2c2ccc(Cl)cc2)cc1` showed an Activity of 57.5%. `COc1ccc([C@@H]2C[C@@H](SCc3ccc(C(C)(C)C)cc3)[C@H](C(=O)O)CN2S(=O)(=O)c2ccc(Cl)cc2)cc1` showed an Activity of 66%. `COc1ccc([C@@H]2CC=C(C(=O)O)[C@H](c3cccc(Br)c3)N2S(=O)(=O)c2ccc(C)cc2)cc1OC` gave an Activity of 59%. Work on `CCS[C@@H]1C[C@@H](c2cc(OC)c(OC)c(OC)c2)N(S(=O)(=O)c2ccc(C)cc2)C[C@H]1C(=O)O` yielded an Activity of 90.4%. `CCCCCS[C@@H]1C[C@@H](c2ccc(C)cc2)N(S(=O)(=O)c2ccc(C)cc2)C[C@H]1C(=O)O` gave an Activity of 74.3%. In the case of `CC(=O)C1=CC[C@@H](c2ccc(C)cc2)N(S(=O)(=O)c2ccc(C)cc2)C1`, the Activity is reported as 90.6%. `Cc1ccc(S(=O)(=O)N2[C@@H](c3ccc(Br)cc3)C(C(=O)O)=CC[C@H]2c2cccs2)cc1` showed an Activity of 71.2%. `CCc1ccc([C@@H]2C=CCCN2S(=O)(=O)c2ccc(C)cc2)cc1` was tested, and the Activity was 99.5%. In the case of `O=C(O)C1=CC[C@@H](c2ccc(Cl)cc2)N(S(=O)(=O)c2ccc(Cl)cc2)[C@H]1c1ccc(Cl)cc1`, the Activity is reported as 57.7%. `Cc1ccc([C@@H]2CC=C(C(=O)O)[C@H](c3ccc(Cl)cc3)N2S(C)(=O)=O)cc1` gave an Activity of 79.1%.
